# Reference: publication PMC5820046 (Internal Medicine, 2017)
# Where two headings read alike, the source gives them in different places.
# Legend:
# plasma protein [1] = test: Plasma protein binding of DAP, present case; type: in vitro ADME, human; settings: patient plasma, DAP 7 mg/kg every 48 hours
# [2] = present case, DAP 7 mg/kg every 48 hours, chronic renal failure, HPLC
# patient [3] = settings: present case
# T cells = settings: present case
# patient [4] = settings: present case, rapid type
# patient [5] = settings: present case (case 37)
# patients [6] = settings: phase III clinical trials; cited from earlier work
# patients [7] = settings: FDA adverse event reporting system, 2004 to 2010; cited from earlier work
# [8] = healthy volunteers; DAP 6 mg/kg every 24 hours; cited from earlier work
# plasma protein [9] = settings: healthy volunteers, escalating dose levels; cited from earlier work
# patients [10] = settings: cited from earlier work
smiles,measurement,setting,value
"CCCCCCCCCC(=O)N[C@@H](Cc1c[nH]c2ccccc12)C(=O)N[C@H](CC(N)=O)C(=O)N[C@@H](CC(=O)O)C(=O)N[C@@H]1C(=O)NCC(=O)N[C@@H](CCCN)C(=O)N[C@@H](CC(=O)O)C(=O)N[C@H](C)C(=O)N[C@@H](CC(=O)O)C(=O)NCC(=O)N[C@H](CO)C(=O)N[C@@H]([C@H](C)CC(=O)O)C(=O)N[C@@H](CC(=O)c2ccccc2N)C(=O)O[C@@H]1C [DAP, Daptomycin]",percentage of plasma protein-bound DAP,plasma protein [1],87.8%
same,median plasma DAP Cmin,[2],27400 ng/mL
same,"Skin tests, prick-puncture administration and patch tests, reaction",patient [3],negative
same,drug lymphocyte stimulation test (DLST) reaction,T cells,negative
same,intracutaneous test reaction,patient [4],positive
same,intracutaneous test reaction,patient [4]; listed as daptomycin,positivity
same,Imaging findings,patient [5]; DAP 7 mg/kg,"Bilateral, peripheral nodules and patchy consolidations"
same,Prognosis,patient [5]; initial treatment withdrawal,Recover
same,"myopathic symptoms, patients",patients [6],0.2%
same,"serum creatinine kinase (CK) elevation, patients",patients [6],2.8%
same,patients who developed DAP-associated EP,patients [7],63 patients
same,median plasma DAP Cmin,[8],9130 ng/mL
same,percentage of DAP plasma protein binding,plasma protein [9],consistent across dose levels
same,DAP Cmin associated with an increased probability of CK elevation,patients [10],24300 ng/mL
